≈ marks a conversion by molar mass, not a printed value.
Tests used:
Format in all cases: functional
Staphylococcus aureus [1] = assay: Antibacterial activity against Staphylococcus aureus MB2865 infected in iv dosed mouse assessed as >= log10 cfu kidney burden reduction administered bid after 24 hrs
Enterococcus faecalis = assay: Antibacterial activity against Enterococcus faecalis C21560 by turbidity method; settings: read-out: MIC100
Streptococcus pneumoniae = assay: Antibacterial activity against Streptococcus pneumoniae CL2883 by turbidity method; settings: read-out: MIC100
Staphylococcus aureus [2] = assay: Antibacterial activity against Staphylococcus aureus MB2865 by turbidity method; settings: read-out: MIC100
Staphylococcus aureus [3] = assay: Ratio of vancomycin ED99 to compound ED99 for Staphylococcus aureus MB2865 infected in iv dosed mouse
Staphylococcus aureus [4] = assay: Antibacterial activity against Staphylococcus aureus MB2865 infected in mouse assessed as log kidney burden reduction administered at 4 mg/kg, iv bid after 24 hrs relative to control

Row | Compound | ED99 (Staphylococcus aureus [1]) [mg/kg] | MIC (Enterococcus faecalis) [µg/mL] | MIC (Streptococcus pneumoniae) [µg/mL] | MIC (Staphylococcus aureus [2]) [µg/mL] | Ratio (Staphylococcus aureus [3]) | CFU (Staphylococcus aureus [4])
1 | CO/C(C)=C1/NC(=O)[C@H]([C@@H](C)O)NC(=O)c2csc(n2)-c2cc(O)c(-c3nc(CNC(=O)CCN4CCOCC4)cs3)nc2-c2csc(n2)[C@@H]2COC(=O)c3c4c5c(cccc5n3O)COC(=O)[C@@H](O[C@H]3C[C@](C)(O)[C@H](N(C)C)[C@H](C)O3)[C@@H](OC4)[C@H](NC(=O)c3csc1n3)c1nc(cs1)C(=O)N2 | >0.5 | 0.12 (≈ 0.0802 µM) | 0.0075 (≈ 0.00501 µM) | 0.06 (≈ 0.0401 µM) |  | 
2 | CO/C(C)=C1/NC(=O)[C@H]([C@@H](C)O)NC(=O)c2csc(n2)-c2cc(O)c(-c3nc(CNC(=O)C(C)NC(N)=O)cs3)nc2-c2csc(n2)[C@@H]2COC(=O)c3c4c5c(cccc5n3O)COC(=O)[C@@H](O[C@H]3C[C@](C)(O)[C@H](N(C)C)[C@H](C)O3)[C@@H](OC4)[C@H](NC(=O)c3csc1n3)c1nc(cs1)C(=O)N2 (some centres undefined) | 0.02 | 0.25 (≈ 0.17 µM) | 0.0038 (≈ 0.00259 µM) | 0.06 (≈ 0.0409 µM) | 200 | 
3 | CO/C(C)=C1/NC(=O)[C@H]([C@@H](C)O)NC(=O)c2csc(n2)-c2cc(O)c(-c3nc(CNC(=O)CN4CCN(C)CC4)cs3)nc2-c2csc(n2)[C@@H]2COC(=O)c3c4c5c(cccc5n3O)COC(=O)[C@@H](O[C@H]3C[C@](C)(O)[C@H](N(C)C)[C@H](C)O3)[C@@H](OC4)[C@H](NC(=O)c3csc1n3)c1nc(cs1)C(=O)N2 | 0.28 | 0.09 (≈ 0.0602 µM) | 0.0007 (≈ 0.000468 µM) | 0.0375 (≈ 0.0251 µM) |  | 1.08
4 | CO/C(C)=C1/NC(=O)[C@H]([C@@H](C)O)NC(=O)c2csc(n2)-c2cc(O)c(-c3nc(CNC(=O)CN4CCOCC4)cs3)nc2-c2csc(n2)[C@@H]2COC(=O)c3c4c5c(cccc5n3O)COC(=O)[C@@H](O[C@H]3C[C@](C)(O)[C@H](N(C)C)[C@H](C)O3)[C@@H](OC4)[C@H](NC(=O)c3csc1n3)c1nc(cs1)C(=O)N2 | >0.5 | 0.015 (≈ 0.0101 µM) | 0.00046 (≈ 0.00031 µM) | 0.0075 (≈ 0.00506 µM) |  | 
5 | CO/C(C)=C1/NC(=O)[C@H]([C@@H](C)O)NC(=O)c2csc(n2)-c2cc(O)c(-c3nc(CNC(=O)CN(C)C)cs3)nc2-c2csc(n2)[C@@H]2COC(=O)c3c4c5c(cccc5n3O)COC(=O)[C@@H](O[C@H]3C[C@](C)(O)[C@H](N(C)C)[C@H](C)O3)[C@@H](OC4)[C@H](NC(=O)c3csc1n3)c1nc(cs1)C(=O)N2 | >0.5 | 0.25 (≈ 0.174 µM) | 0.0075 (≈ 0.00521 µM) | 0.06 (≈ 0.0417 µM) |  | 
6 | CO/C(C)=C1/NC(=O)[C@H]([C@@H](C)O)NC(=O)c2csc(n2)-c2cc(O)c(-c3nc(CNCc4cncnc4)cs3)nc2-c2csc(n2)[C@@H]2COC(=O)c3c4c5c(cccc5n3O)COC(=O)[C@@H](O[C@H]3C[C@](C)(O)[C@H](N(C)C)[C@H](C)O3)[C@@H](OC4)[C@H](NC(=O)c3csc1n3)c1nc(cs1)C(=O)N2 | 0.13 | 0.03 (≈ 0.0207 µM) | 0.0007 (≈ 0.000484 µM) | 0.0225 (≈ 0.0156 µM) |  | 
7 | CO/C(C)=C1/NC(=O)[C@H]([C@@H](C)O)NC(=O)c2csc(n2)-c2cc(O)c(-c3nc(CNCCO)cs3)nc2-c2csc(n2)[C@@H]2COC(=O)c3c4c5c(cccc5n3O)COC(=O)[C@@H](O[C@H]3C[C@](C)(O)[C@H](N(C)C)[C@H](C)O3)[C@@H](OC4)[C@H](NC(=O)c3csc1n3)c1nc(cs1)C(=O)N2 | 0.32 | 0.06 (≈ 0.0429 µM) | 0.00046 (≈ 0.000329 µM) | 0.03 (≈ 0.0215 µM) |  | 
8 | CO/C(C)=C1/NC(=O)[C@H]([C@@H](C)O)NC(=O)c2csc(n2)-c2cc(O)c(-c3nc(CN(C)C)cs3)nc2-c2csc(n2)[C@@H]2COC(=O)c3c4c5c(cccc5n3O)COC(=O)[C@@H](O[C@H]3C[C@](C)(O)[C@H](N(C)C)[C@H](C)O3)[C@@H](OC4)[C@H](NC(=O)c3csc1n3)c1nc(cs1)C(=O)N2 | >0.5 | 0.0075 (≈ 0.00542 µM) | 0.00095 (≈ 0.000687 µM) | 0.03 (≈ 0.0217 µM) |  | 
9 | CO/C(C)=C1/NC(=O)[C@H]([C@@H](C)O)NC(=O)c2csc(n2)-c2cc(O)c(-c3nc(CN)cs3)nc2-c2csc(n2)[C@@H]2COC(=O)c3c4c5c(cccc5n3O)COC(=O)[C@@H](O[C@H]3C[C@](C)(O)[C@H](N(C)C)[C@H](C)O3)[C@@H](OC4)[C@H](NC(=O)c3csc1n3)c1nc(cs1)C(=O)N2 | >0.5 | 0.06 (≈ 0.0443 µM) | 0.00047 (≈ 0.000347 µM) | 0.077 (≈ 0.0568 µM) |  | 
10 | CN[C@H](CC(C)C)C(=O)N[C@H]1C(=O)N[C@@H](CC(N)=O)C(=O)N[C@H]2C(=O)N[C@H]3C(=O)N[C@H](C(=O)N[C@H](C(=O)O)c4cc(O)cc(O)c4-c4cc3ccc4O)[C@H](O)c3ccc(c(Cl)c3)Oc3cc2cc(c3O[C@@H]2O[C@H](CO)[C@@H](O)[C@H](O)[C@H]2O[C@H]2C[C@](C)(N)[C@H](O)[C@H](C)O2)Oc2ccc(cc2Cl)[C@H]1O [VANCOMYCIN] | 0.17 |  |  |  |  | 

Reference: ChEMBL document CHEMBL2311426, “Synthesis and antibacterial activity of novel water-soluble nocathiacin analogs” (Bioorg Med Chem Lett, 2013)
